The values that follow come from patent publication US20150297564A1 (CORNELL UNIVERSITY, priority 2014, published 2015).

Data set [1] relates to gk, glut2, pdx1, ucp2 and genes in the ARE, GR, Wnt and NFAT pathways. Description: Real time Q-PCR of islet mRNA levels (GSIS regulators, ARE, GR, Wnt, NFAT pathway genes). The format is cell-based, mouse. As to conditions: dKO islets. An excerpt: All chemicals were purchased from Sigma (Saint Louis, Mo.) unless indicated otherwise. Detailed protocols, reagents, and instruments for islet isolation, culture, and insulin secretion were the same as described previously (Wang et al., “Molecular Mechanisms for Hyperinsulinaemia Induced by Overproduction of Selenium-Dependent Glutathione Peroxidase-1 in Mice,” Diabetologia 51:1515-1524 (2008), which is hereby incorporated by reference in its entirety). Briefly, Langerhans' islets were isolated from the WT, GKO, SKO, and dKO mice using a standard procedure (Gotoh et al., “An Improved Method for Isolation of Mouse Pancreatic Islets,” Transplantation 40:437-438 (1985), which is hereby incorporated by reference in its entirety) with minor modifications. Isolated islets (50 per sample, n=3 per group) were recovered in RPMI 1640 (Gibco, Grand Island, N.Y.) with 5.5 mM glucose and 10% FBS for 2 hours before treatment. […]
Total RNA was extracted from islets using Trizol reagent (Invitrogen, Carlsbad, Calif.). […] Relative mRNA levels were determined by real time Q-PCR (7900HT; Applied Biosystems, Foster City, Calif.) as previously described (Pepper et al., “Impacts of Dietary Selenium Deficiency on Metabolic Phenotypes of Diet-Restricted GPX1-Overexpressing Mice,” Antioxid. Redox Signal. 14:383-390 (2011), which is hereby incorporated by reference in its entirety).

For another data set, the system named is GK. Description: Islet GK enzyme activity after treatment. Format: cell-based, mouse. An excerpt:
(§1) All chemicals were purchased from Sigma (Saint Louis, Mo.) unless indicated otherwise. Detailed protocols, reagents, and instruments for islet isolation, culture, and insulin secretion were the same as described previously (Wang et al., “Molecular Mechanisms for Hyperinsulinaemia Induced by Overproduction of Selenium-Dependent Glutathione Peroxidase-1 in Mice,” Diabetologia 51:1515-1524 (2008), which is hereby incorporated by reference in its entirety). Briefly, Langerhans' islets were isolated from the WT, GKO, SKO, and dKO mice using a standard procedure (Gotoh et al., “An Improved Method for Isolation of Mouse Pancreatic Islets,” Transplantation 40:437-438 (1985), which is hereby incorporated by reference in its entirety) with minor modifications. Isolated islets (50 per sample, n=3 per group) were recovered in RPMI 1640 (Gibco, Grand Island, N.Y.) with 5.5 mM glucose and 10% FBS for 2 hours before treatment. For the islet experiments, ebselen, CuDIPs, and Se (sodium selenite) were used at 50, 10, and 0.1 μM and prepared in DMSO, ethanol, and saline, respectively. The same amounts of vehicle were used as the respective controls. The chemicals were removed after 5 hour incubation, and the islets were transferred to Krebs-Henseleit buffer for 30 min and then incubated for 60 min with 2.8 or 16.7 mM glucose in the same buffer. The supernatants were collected for insulin analysis and the islets were used for mRNA, protein, and enzyme activity analyses.
(§2) Islet GK activity was assayed at 28° C. by measuring absorbance increases of NADPH at 340 nm in a coupled enzyme system. One unit of GK activity was defined as the amount that catalyzes the formation of 1 μmole of glucose 6-phosphate per minute. Islet and liver LDH activities were measured using a kit from Sigma according to the manufacturer's instructions. Islet and liver GSR activities were measured as previously-described (Zhu et al., “Double Null of Selenium-Glutathione Peroxidase-1 and Copper, Zinc-Superoxide Dismutase Enhances Resistance of Mouse Primary Hepatocytes to Acetaminophen Toxicity,” Exp. Biol. Med. (Maywood) 231:545-552 (2006), which is hereby incorporated by reference in its entirety) and one unit of activity was defined as 1 nmol of glutathione disulfide reduced per minute. Plasma ALT activity was assayed using a kit (Thermo Scientific, Waltham, Mass.) according to the manufacturer's instructions. Plasma AKP activity was measured by the hydrolysis of p-nitrophenol phosphate to p-nitrophenol, and the enzyme activity unit was defined as the amount of activity that releases 1 μmol of p-nitrophenol per minute at 30° C. (Bowers et al., “A Continuous Spectrophotometric Method for Measuring the Activity of Serum Alkaline Phosphatase,” Clin. Chem. 12:70-89 (1966), which is hereby incorporated by reference in its entirety).

The subject of another data set is GLUT2. Description: Islet GLUT2 protein level (Western blot). The format is cell-based, mouse.
From the text: as §1
(§3) Islet samples used for Western blot analysis were homogenized in phosphate buffer (50 mM, pH 7.4) containing 0.1% Triton X-100 and protease inhibitor mixture (AEBSF, aprotinin, bestatin hydrochloride, E-64-[N-(transepoxysuccinyl)-L-leucine 4-guanidinobutylamide], leupeptin, and pepstatin A). The homogenates were centrifuged at 14000×g for 10 min at 4° C. A total of 10 μg of protein per lane was subjected to Western blot analysis (McClung et al., “Development of Insulin Resistance and Obesity in Mice Overexpressing Cellular Glutathione Peroxidase,” Proc. Natl. Acad. Sci. USA 101:8852-8857 (2004), which is hereby incorporated by reference in its entirety). After the gel electrophoresis, the separated proteins were transferred onto a protran BA85 nitrocellulose membrane (Schleicher Schuell Bioscience, Keene, N.H.). The membranes were incubated first with respective primary antibodies (rabbit anti-GLUT2, anti-PDX1, and anti-UCP2, Millipore, Billerica, Mass.), and thereafter the second antibody against rabbit IgG (Bio-Rad, Hercules, Calif.). For loading and transfer normalization, the rabbit anti-β-actin antibody (Cell Signaling, Beverly, Mass.) was used. An enhanced chemiluminescent kit (Pierce, Rockford, Ill.) was used for detection of the band intensity.
For orientation: A western blot detects proteins with antibodies after separation by electrophoresis.

The test system of data set [2] is islets isolated from WT, GKO, SKO, and dKO mice. Briefly: Glucose-stimulated insulin secretion (GSIS) of isolated islets. The format is cell-based, mouse. As to conditions: for GSIS (insulin secretion) versus solvent control: 16.7 mM glucose, 5 hour pre-treatment.
From the text: as §1

For the next data set, the system named is PDX1. Description: Islet PDX1 protein level (Western blot). Format: cell-based, mouse.
From the text: as §1, §3

Another data set deals with UCP2. Briefly: Islet UCP2 protein level (Western blot). The format is cell-based, mouse.
From the text: as §1, §3

The next data set deals with intracellular ROS. Briefly: Islet intracellular ROS (DCFH-DA probe). The following applies: GKO islets, DCF probe. The format is cell-based, mouse. How it is done: Islet ROS levels were determined using the fluorescent probe, 2′,7′-dichlorofluorescin diacetate (“DCFH-DA”). Briefly, the treated islets were washed and incubated with DCFH-DA (20 μM) for 10 min at 37° C. After removal of the probe, cells were washed with pre-warmed PBS. Fluorescence was monitored at 488 nm excitation and 525 nm emission wavelengths.

Data set [3] deals with T1, glutathione reductase (GSR) (Mus musculus, UniProt P47791).
T1 construct: from tissue; host or cells: isolated pancreatic islets of WT and GKO mice
T1 sequence (P47791 27-500): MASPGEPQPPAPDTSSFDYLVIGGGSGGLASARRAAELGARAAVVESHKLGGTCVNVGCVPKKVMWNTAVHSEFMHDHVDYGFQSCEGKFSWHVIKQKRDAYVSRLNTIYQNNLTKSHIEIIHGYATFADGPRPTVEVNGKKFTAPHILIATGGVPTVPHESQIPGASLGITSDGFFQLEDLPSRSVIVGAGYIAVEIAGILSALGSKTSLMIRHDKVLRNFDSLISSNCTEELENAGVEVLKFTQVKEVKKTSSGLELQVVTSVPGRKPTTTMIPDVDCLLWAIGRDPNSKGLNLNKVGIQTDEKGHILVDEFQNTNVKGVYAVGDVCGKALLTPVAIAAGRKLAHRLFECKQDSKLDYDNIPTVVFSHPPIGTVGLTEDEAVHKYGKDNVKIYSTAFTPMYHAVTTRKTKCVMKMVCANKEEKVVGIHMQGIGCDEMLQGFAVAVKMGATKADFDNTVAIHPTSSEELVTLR
Briefly: Islet GSR activity. Format: cell-based. As to conditions: WT and GKO islets. How it is done:
as §2

Data set [4] deals with GKO mice. Briefly: Off-target toxicity in GKO mice (plasma ALT, AKP; liver LDH, GSR). Format: in vivo, mouse. As to conditions: 50 mg/kg i.p., 1 hour. How it is done: (§4) Ebselen was dissolved in dimethyl sulfoxide (DMSO) and injected with saline (1:1 by volume) together. The same volume of DMSO and saline was used as the solvent control. Blood glucose concentrations were measured by clipping tails and using the Glucometer Elite system (Bayer, Elkhart, Ind.). Plasma insulin concentrations were determined using a rat/mouse Insulin ELISA kit with mouse insulin as standards (Crystal Chem, Downers Grove, Ill.).
as §2

The test system of data set [5] is GKO mice. Briefly: Glucose tolerance test (GTT) in GKO mice. The format is in vivo, mouse. As to conditions: fasted GKO mice, 50 mg/kg i.p., glucose 1 g/kg. As to the method: as §4
For data set [6] the following is noted: i.p. in 4% w/v hydroxypropyl-β-cyclodextrin to C57BL/6 mice or suspended in water orally to humans; cited from earlier work.
The subject of data set [7] is lactate dehydrogenase (LDH). Description: Islet LDH activity. The following applies: WT and GKO islets. Format: cell-based, mouse. How it is done:
as §2

Data set [8] concerns GKO mice. Briefly: In vivo GSIS test in GKO mice (plasma insulin). Further details: species or system mouse. The following applies: fasted GKO mice. How it is done: as §4

In the case of copper diisopropylsalicylate [CuDIPs], the “expression of genes in the four pathways (ARE, GR, Wnt, NFAT) versus controls” value in [1] is “suppressed”. Further, the “GK activity change versus control (direction)” value in the data set with GK (GKO islets) was “decrease”; in the data set on GK (dKO islets), “Neither CuDIPs nor Na2SeO3 affected”. Further, the “GLUT2 protein change versus control (direction)” value in the data set on GLUT2 (GKO islets) is recorded as “increase”; in the data set with GLUT2 (WT islets), “increased”; with GLUT2 (dKO islets), “Neither CuDIPs nor Na2SeO3 affected”. Further, the “GLUT2 protein elevation versus control” value in the data set on GLUT2 (SKO islets) came out at 63%. Further, the “baseline insulin secretion versus solvent control” value in data set [2] (SKO islets, 2.8 mM glucose) is recorded as “promoted”. The “GSIS (insulin secretion) versus solvent control” value in data set [2] (SKO islets) is given as “promoted”; in [2] (WT islets), “no effect”. Moreover, the “PDX1 protein elevation versus control” value with PDX1 (SKO islets) stood at 2.4 fold. Further, the “PDX1 protein change versus control (direction)” value in the data set with PDX1 (WT islets) is listed as “increased”; in the data set with PDX1 (dKO islets), “Neither CuDIPs nor Na2SeO3 affected”. Also, in the data set with UCP2 (SKO islets), the “UCP2 protein decrease versus control” value is given as 78%. The entries for the “UCP2 protein change versus control (direction)” value in the data set on UCP2 (WT islets) and with UCP2 (dKO islets) were “increased” and “Neither CuDIPs nor Na2SeO3 affected”, respectively.
On to `O=c1c2ccccc2[se]n1-c1ccccc1` [ebselen], for which the “decrease of intracellular ROS” value in the data set with intracellular ROS is on record as 74%. In data set [3], the “effect on GSR activity” value is listed as “no effect”. Further, in the data set on GKO mice [4], the “hepatic GSR activity versus control” value is recorded as “no differences”. In addition, in the data set on GKO mice [4], the “hepatic LDH activity versus control” value is given as “no differences”. The “plasma alanine aminotransferase (ALT) activity versus control” value in the data set on GKO mice [4] is recorded as “no differences”. Besides, the “plasma alkaline phosphatase (AKP) activity versus control” value with GKO mice [4] is on record as “no differences”. Besides, the “GK activity elevation versus control” value with GK (GKO islets) came out at 20%; in the data set with GK (SKO islets) it was 86%; in the data set with GK (WT islets), 74%; with GK (dKO islets), 58%. The “GLUT2 protein elevation versus control” value in the data set with GLUT2 (GKO islets) amounted to 2.1 fold; with GLUT2 (SKO islets), 6.4 fold; in the data set on GLUT2 (WT islets), 4.9 fold; with GLUT2 (dKO islets), 85%. For the same molecule, the results for the glucose clearance improved in the data set on GKO mice [5] (15 min), in the data set on GKO mice [5] (30 min) and in the data set with GKO mice [5] (60 min) were 17%, 18% and 21%, respectively. For the same molecule, the results for the “PDX1 protein elevation versus control” value in the data set on PDX1 (GKO islets), in the data set on PDX1 (SKO islets) and in the data set on PDX1 (WT islets) were 4.0 fold, 3.2 fold and 5.5 fold, respectively. Also, the absorption entry in [6] is listed as “absorbed to blood”. Also, the blood-brain barrier crossing entry in data set [6] is given as “crossed the blood-brain barrier”. Also, in [7], the “effect on LDH activity” value was “no effect”. For the same molecule, the “elevation of plasma insulin concentration versus control” value in the data set with GKO mice [8] (50 mg/kg i.p. 1 hour before glucose challenge, 0 min (baseline)) was determined as 95%; with GKO mice [8] (50 mg/kg i.p., 15 min after the glucose challenge), 1.2 fold; in the data set on GKO mice [8] (50 mg/kg i.p., 30 min after the glucose challenge), 91%.
On to `O=[Se]([O-])[O-].[Na+].[Na+]` [Na2SeO3, sodium selenite], for which the “GK activity change versus control (direction)” value with GK (GKO islets) was “increased”; with GK (SKO islets), “decreased”; in the data set on GK (dKO islets), “Neither CuDIPs nor Na2SeO3 affected”. Besides, in the data set with GLUT2 (dKO islets), the “GLUT2 protein change versus control (direction)” value is “Neither CuDIPs nor Na2SeO3 affected”. Further, the “GSIS (insulin secretion) versus solvent control” value in data set [2] (GKO islets) was “did not affect”; in data set [2] (SKO islets) it was “elevated”; in [2] (WT islets) it was “did not affect”; in [2] (dKO islets) it was “elevated”. Moreover, the “PDX1 protein change versus control (direction)” value with PDX1 (dKO islets) is recorded as “Neither CuDIPs nor Na2SeO3 affected”. In addition, the “UCP2 protein change versus control (direction)” value in the data set with UCP2 (dKO islets) is “Neither CuDIPs nor Na2SeO3 affected”.
